From patent US11667628B2, “Compounds for imaging tau proteins that accumulate in brain” (National Institutes for Quantum and Radiological Science …, priority 2012, dated 2023)

Columns and labels:
[1] = literature by Zhuang et al.; cited from earlier work
[2] = molecular target: Human T40 (the longest tau isoform formed with 441 amino acid residues) fibrils (Homo sapiens, UniProt P10636); assay: In vitro fluorometric binding assay, recombinant T40 tau fibrils; settings: for EC50: average±SE, concentration giving half of maximum fluorescence intensity; for λem (nm) T40: detection wavelength; for λem (nm) T40 / λex (nm) T40: compound bound to T40 polymers; for affinity to tau pathologies: fluorometric analysis using Aβ and tau filaments formed in a test tube; for λex (nm) T40: optimal excitation wavelength; for EC50 (Aβ)/EC50 (Tau): ratio of EC50 of Aβ40 fibrils to EC50 of T40 fibrils
Sequence of Human T40 (the longest tau isoform formed with 441 amino acid residues) fibrils (P10636 1-441 isoform P10636-8): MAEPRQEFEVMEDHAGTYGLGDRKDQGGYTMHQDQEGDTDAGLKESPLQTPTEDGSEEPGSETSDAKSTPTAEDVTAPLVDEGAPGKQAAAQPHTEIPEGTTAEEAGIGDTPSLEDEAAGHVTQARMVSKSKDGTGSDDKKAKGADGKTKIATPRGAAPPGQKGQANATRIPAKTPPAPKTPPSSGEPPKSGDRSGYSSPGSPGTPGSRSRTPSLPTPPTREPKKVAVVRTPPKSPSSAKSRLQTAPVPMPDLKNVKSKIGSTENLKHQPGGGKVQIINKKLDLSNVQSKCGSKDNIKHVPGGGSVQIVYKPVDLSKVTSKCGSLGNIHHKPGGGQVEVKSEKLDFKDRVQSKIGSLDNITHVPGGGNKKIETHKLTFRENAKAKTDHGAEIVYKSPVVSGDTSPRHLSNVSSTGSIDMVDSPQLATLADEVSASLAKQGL

[3] = molecular target: Aβ40 fibrils (Homo sapiens, UniProt P05067); assay: In vitro fluorometric binding assay, Aβ40 fibrils; settings: for EC50: average±SE, concentration giving half of maximum fluorescence intensity; for λem (nm) Aβ40: detection wavelength; for λem (nm) Aβ40 / λex (nm) Aβ40: compound bound to Aβ40 polymers; for λex (nm) Aβ40: optimal excitation wavelength
Sequence of Aβ40 fibrils (P05067 672-711 limits assumed): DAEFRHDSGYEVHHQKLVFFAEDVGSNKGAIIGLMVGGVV

[4] = test system: fibrous aggregate pathologies in AD grey matter; assay: In vitro autoradiography, AD frontal cortex sections; format: binding, human; settings: up to 1 nM radioligand
[5] = test system: NFTs in the AD patient's hippocampus; assay: In vivo PET imaging of humans; set-up: species or system human; settings: same AD and normal control subjects
From the text: 2 subjects with normal cognitive function ([…]; average 73.5 years old), and 3 AD patients ([…] years old; average 72 years old) were employed for this study. All the subjects were males, and all the AD patients were diagnosed in accordance with the standards of the National Institute of Neurological and Communicative Diseases and Stroke/Alzheimer's Disease and Related Disorders Association (NINCDS-ADRDA). The clinical dementia rating scale was 0 for both normal subjects, and ranged from 1 to 2 with the AD patients. Their cognitive function was evaluated by a mini-mental state examination (MMSE). […] During the [^11C]PBB-PET scanning, artery blood samples are obtained 10, 20, 30, 40, 50, 60, 70, 80, 90, 100, and 110 seconds after the injection, and 2, 2.5, 3, 4, 5, 6, 7, 8, 9, 10, 12, 15, 20, 25, 30, 40, 50, 60 and 70 minutes after the injection, and the amount of radioactivity in the plasma was measured. The radioactivity to match [^11C]PBB3 in unmetabolized plasma was measured by HPLC using the samples from 3, 10, 20, 30 and 60 minutes after the injection (Waters mBondapak C18 column, 7.8 mm×300 mm; acetonitrile/ammonium formate mobile phase, gradient elution=40/60 (0 minutes), 52/48 (6 minutes), 80/20 (7 minutes), 80/20 (8 minutes), 40/60 (9 minutes) and 40/60 (15 minutes); flow rate, 6 mL/minute). […]

[6] = test system: NFTs in AD brain slices including the hippocampal formation; assay: In vitro autoradiography of AD brains including hippocampal formation; format: binding, human; settings: for total binding after addition of non-radioactive PBB5 (100 μM) and thioflavin-S (10 μM) / signals in hippocampus CAI region and pes hippocampi: 10 nM radioligand; for signals in hippocampus CAI region and pes hippocampi: AD patient's brain slice
Experimental: 12 to 15-month-old non-Tg WT mice and PS19 mice were decapitated, and their brains were frozen and sliced into 20 μm-thick sections in a cryostat (HM560). The sections were placed on slide glass (Matsunami Glass), and kept at −80° C., until an analysis. Similarly, sections of the cerebral cortex were obtained from an AD patient. […] Non-specific bonding was detected in the presence of a 10 μMV non-radioactive ligand. Samples were reacted with [^11C]PBB2 or [^11C]PBB3, and were each washed twice, for 2 minutes, with an ice-cool Tris-HCl buffer solution containing 20% or 10% ethanol, and immersed in ice water for 10 seconds. After that, the sections were dried with warm air, and placed on imaging plates (Fuji Film). The imaging plates were scanned by a BAS500 system (Fuji Film), and autoradiograms were obtained (FIG. 6A).
In order to compare the binding of [^11C]PBB3 and [^11C]PIB to areas inside the human brain where there were plenty of tau pathologies, in vitro autoradiograms were obtained using AD brain slices including the hippocampal formation.

O=C(O)c1cc(/C=C/c2ccc(/C=C/c3ccc(O)c(C(=O)O)c3)c(F)c2)ccc1O [FSB, (E,E)-1-fluoro-2,5-bis(3-hydroxycarbonyl-4-hydroxy)styrylbenzene]
passing the blood brain barrier [1]: difficulty passing the blood brain barrier

CN(C)c1ccc(/C=C/C=C/c2nc3ccccc3s2)cc1 [PBB1, 4-((1E,3E)-4-(benz[d]thiazole-2-yl)buta-1,3-dienyl)-N,N-dimethylaniline]
EC50 [2]: 402 ± 352 nM
λem (nm) T40 [2]: 565 nm
affinity to tau pathologies [2]: high affinity
λex (nm) T40 [2]: 515 nm
EC50 (Aβ)/EC50 (Tau) [2]: 10.2
EC50 [3]: 4110 nM
λem (nm) Aβ40 [3]: 565 nm
λex (nm) Aβ40 [3]: 440 nm

CC[n+]1c(/C=C/C=C/c2ccc(N(C)C)cc2)sc2ccccc21 [PBB5, 2-((1E,3E)-4-(4-(dimethylamino)phenyl)buta-1,3-dienyl)-3-ethylbenzo[d] thiazole-3-ium]
EC50 [2]: 126 ± 67 nM
λem (nm) T40 [2]: 685 nm
affinity to tau pathologies [2]: high affinity
λex (nm) T40 [2]: 630 nm
EC50 (Aβ)/EC50 (Tau) [2]: 9.7
EC50 [3]: 1220 nM
λem (nm) Aβ40 [3]: 685 nm
λex (nm) Aβ40 [3]: 635 nm

Cc1ccc2c(c1)sc(-c1ccc(N(C)C)cc1)[n+]2C.[Cl-] [Thioflavin-T, reference compound]
λem (nm) T40 [2]: 485 nm
λex (nm) T40 [2]: 445 nm
λem (nm) Aβ40 [3]: 495 nm
λex (nm) Aβ40 [3]: 445 nm

[11CH3]Nc1ccc(/C=C/C=C/c2nc3ccc(O)cc3s2)cc1 [[^11C]PBB2, 2-((1E,3E)-4-(4-([^11C]methylamino)phenyl)buta-1,3-dienyl)benz[d]thiazole-6-ol]
radiolabeling of fibrous aggregate pathologies, AD grey matters [4]: strongly radio-labeled

[11CH3]Nc1ccc(/C=C/C=C/c2nc3ccc(O)cc3s2)cn1 [[^11C]PBB3, 2-((1E,3E)-4-(6-([^11C]methylamino)pyridine-3-yl)buta-1,3-dienyl)benz[d]thiazole-6-ol]
radiolabeling of fibrous aggregate pathologies, AD grey matters [4]: strongly radio-labeled
PET signal in hippocampal formation of AD patient compared to NC [5]: increased
total binding after addition of non-radioactive PBB5 (100 μM) and thioflavin-S (10 μM) [6]: clearly discarded
signals in hippocampus CAI region and pes hippocampi [6]: Strong [^11C]PBB3 signals were observed
binding in cortex region in the side of the collateral sulcus ([6]; compared to [^11C]PIB): more binding

[11CH3]Nc1ccc(-c2nc3ccc(O)cc3s2)cc1 [[^11C]PIB, reference compound]
PET signal in hippocampal formation of AD patient compared to NC [5]: did not change much
total binding after addition of non-radioactive PBB5 (100 μM) and thioflavin-S (10 μM) [6]: clearly discarded, except for the white matter
signals in hippocampus CAI region and pes hippocampi [6]: no [^11C]PIB signal was observed

thioflavin-S
passing the blood brain barrier [1]: difficulty passing the blood brain barrier
